The values below come from publication PMC6471485, “Selective Inhibitors of a Human Prolyl Hydroxylase (OGFOD1) Involved in Ribosomal Decoding” (Chemistry (Weinheim an Der Bergstrasse, Germany), 2019).

Data set [1] is described as follows: S9 liver microsome stability assay (Cyprotex). Format: in vitro ADME. The settings on record: for microsomal CLint: S9 liver microsome assay, read-out: predicted intrinsic clearance; for clearance classification: low clearance: < 8.6 µL/min/mg protein. The protocol:
supplemented with 80 µM Zn(II), 70 µM of inhibitor, all in 50 mM Tris-d11, pH 7.5, 10 % D2O, […]
Cell Culture and Immunoblotting
HeLa cells were cultured in DMEM media supplemented with 10 % fetal bovine serum, 4 mM L-glutamine, 100 U/mL penicillin, and 100 µg/mL streptomycin. Cells were treated with the indicated compounds, prepared in 1% DMSO, for 5 h. Following a PBS buffer rinse, cells were lysed in urea/SDS buffer supplemented with 1 mM dithiothreitol. Cell extracts were analyzed by SDS-PAGE, electroblotted onto PVDF membranes (Millipore) and probed with anti-HIF-1α antibody (clone 54, BD Transduction Laboratories) at 1:1000 dilution for 1 h at room temperature. The HRP-conjugated secondary antibody was then applied at room temperature for 1 h. Target proteins were detected with SuperSignal Chemiluminescent […]
ADMET in vitro Predictors
S9 liver microsome stability assays and MDCK-MDR1 efflux assays were carried out for CCT3 and CCT4 by Cyprotex (UK). Additional details are provided later in the Supporting […]
The solubility and metabolic stability of CCT3 and CCT4 was preliminarily evaluated using a S9 liver microsome assay (Cyprotex, UK). According to the assay, CCT3 and CCT4 had […]
respectively, and are thus classified as having low clearance (< 8.6 µL/min/mg protein).
The cell permeability of CCT3 and CCT4 were evaluated using an MDR1-MDCK in vitro […]
able to penetrate the blood-brain barrier. The permeability coefficients were determined to be

Another data set concerns the target T1, NO66 (Homo sapiens, UniProt Q9H6W3).
T1 construct: 116-641 were cloned into pFB-LIC-Bse; His (N); made in house; host or cells: Sf9 insect cells
T1 sequence (Q9H6W3 116-641 limits assumed): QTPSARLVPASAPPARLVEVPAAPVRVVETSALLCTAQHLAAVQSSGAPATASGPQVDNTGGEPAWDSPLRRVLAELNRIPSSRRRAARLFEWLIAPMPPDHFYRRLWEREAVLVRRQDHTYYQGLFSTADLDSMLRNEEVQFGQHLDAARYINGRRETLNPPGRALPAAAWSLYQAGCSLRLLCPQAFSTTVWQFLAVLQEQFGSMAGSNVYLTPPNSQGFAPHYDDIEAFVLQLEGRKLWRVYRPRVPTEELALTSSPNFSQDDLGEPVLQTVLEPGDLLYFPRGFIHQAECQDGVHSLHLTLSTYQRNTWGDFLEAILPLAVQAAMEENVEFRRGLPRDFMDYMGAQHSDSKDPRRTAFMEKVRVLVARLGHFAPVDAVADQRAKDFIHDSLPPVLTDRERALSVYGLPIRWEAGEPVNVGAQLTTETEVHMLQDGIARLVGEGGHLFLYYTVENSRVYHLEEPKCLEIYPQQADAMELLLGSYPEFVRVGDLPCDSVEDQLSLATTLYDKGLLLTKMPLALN
Nature of the data set: NO66 IC50 determination, RapidFire MS. It is filed as biochemical. The procedure:
reactions were quenched after 4 min. KDM4A inhibition was tested as described previously using a formaldehyde dehydrogenase (FDH) assay.[9] JARID1B and JARID1C inhibition was tested as described previously using reported AlphaScreen-based assays.[10] MINA531-464 and NO66116-641 were cloned into pFB-LIC-Bse, and the N-terminal His-tagged proteins were produced in Sf9 insect cells. The MINA53 peptide substrate Rpl27a […]
(Gly31 – Pro49 […]) and the NO66 peptide substrate Rpl8
(Asn205 – Thr224 […]) were synthesized by Peptide Protein
Research Ltd (Fareham, Hampshire, UK) to >95% purity. IC50 determinations were performed in 384-well polypropylene plates (Greiner Bio One, Cat Number 781096), and compound dispenses were performed using an ECHO 550 acoustic dispenser (Labcyte, Sunnyvale, CA). […]
RapidFire integrator software (Agilent). Percent conversion was calculated in Excel, and IC50 curves were generated using Prism v. […]
Assays consisted of enzyme (2 µM), inhibitor (200 µM), MnCl2 (50 µM), and SYPRO Orange (1:5000 dilution), all prepared in 50 mM HEPES, pH 7.5. […] An Opticon thermal cycler (MJ Research Inc) was used to control temperature and measure fluorescence. […]
CPMG Binding Experiments: Binding of the inhibitors to the proteins was monitored using Carr-Purcell-Meiboom-Gill (CPMG)-edited 1H spectra. […]

What is called IC50 is the midpoint of a concentration-inhibition curve. As to `Cn1c(O)c(C(=O)CCc2cccs2)c(=O)n(C)c1=O` [compound 42], the microsomal CLint in data set [1] is 7.72 µL/min/mg. Further, in data set [1] (listed as CCT4), the clearance classification entry was “only low levels of clearance”. For the same molecule, the IC50 against NO66 is > 100 µM.

For the molecule `Cn1c(O)c(C(=O)CCc2ccccc2)c(=O)n(C)c1=O` [compound 26], in data set [1], the microsomal CLint was 4.76 µL/min/mg. For the same molecule, the clearance classification entry in data set [1] (listed as CCT3) is given as “only low levels of clearance”. Besides, the IC50 against NO66 is > 100 µM.
